Test results reported in patent US20100048921A1, “PHARMACEUTICALLY ACTIVE COMPOUNDS” (priority 2007, published 2010).

System: thrombocytes (platelet-rich plasma)
Test: Collagen-induced thrombocyte aggregation in platelet-rich plasma (aggregometry, PAP-8E)
Format: cell-based, human
Details: for End point (FA) / Maximum aggregation (MA): substance 50 μM
Protocol: The substances used, genistein, glu-glu, DMSO, ala-ala were provided by the company Sigma-Aldrich, Munich. For the measurement, the Platelet Aggregation Profiler Model PAP-8E of the company Bio/Data Corporation, an 8-channel aggregometer with a computerised digital curve creation, has been used.
After the taking of a blood sample from a large calibre vein in unbuffered citrate 10%, the whole blood which is achieved by this is centrifugated with about 1,500 RPM for 10 min. The platelet-rich plasma (PRP) which is achieved by this then has to rest for 45 min. at ambient temperature. At the same time, […] for the creation of the respective blank values is gained from the same sample with common centrifugation. For the measurement, cuvettes with a volume of 0.25 ml are used.
Stock solutions of the substances to be tested, including genistein as well as the peptides ala-ala and glu-glu which are used, are prepared in a ratio of 1 mg on 1 ml, genistein as well as the tested coupling products in DMSO, glu-glu and ala-ala in H2O.

[1] = collagen 1 μg/ml, listed as genistein

SMILES: O=c1c(-c2ccc(O)cc2)coc2cc(O)cc(O)c12 [Genistein, genistein]
- active concentration which starts to be effective (collagen-induced aggregation, own specification): 50 µM
- aggregation of the platelets (genistein 50 μM, collagen 1 μg/ml, reference (no additive) 90%): 82%
- aggregation (genistein 100 μM, collagen 1 μg/ml, reference (no additive) 90%): 50%
- thrombocyte aggregation (genistein 200 μM, collagen 1 μg/ml): almost completely inhibited
- End point (FA) (collagen 1 μg/ml): 82%
- Maximum aggregation (MA) (collagen 1 μg/ml): 85%
- End point (FA) [1]: 82%
- Maximum aggregation (MA) [1]: 85%
